Tests used:
HRAS wild-type protein = HRAS wild-type protein (Homo sapiens, UniProt P01112); test: Binding to HRAS by surface plasmon resonance (SPR), KD and KD ratio to KRAS
How it was run: (§1)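 GDP-loaded biotinylated Avi-tag RAS proteins (E. coli-expressed) captured on a Biotin CAPture chip at ~100–300 RU; single-cycle kinetics at 30°C, 100 µL/min, 75 s injections of rising compound concentrations. HBS pH 7.4 running buffer with 1 mM DTT, 10 mM MgCl2, 10 µM GDP, 4% DMSO. KD from 1:1 binding fit.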

[1] = test system: human ovarian cancer strain OV7; type: cell-based
Experimental: A test compound was dispensed into a U-bottom 384-well plate as 40 nL serially diluted dimethyl sulfoxide solutions using a liquid handler Echo (LABCYTE). As for human ovarian cancer strain OV7 (ECACC), a cell suspension was prepared so as to have 250 cells/40 µL in a DMEM/Ham's F-12 medium (Nacalai Tesque) supplemented with 5% fetal bovine serum (Sigma), 0.5 µg/mL hydrocortisone, and 10 µg/mL insulin. This cell suspension was dispensed in an amount of 40 µL per well into a plate containing the test compound, and cultured at 37°C in a 5% carbon dioxide gas incubator. Seven days later, 20 µL of CellTiter-Glo (registered trademark) (Promega) was added to each well and luminescence was measured.

[2] = test system: human colorectal cancer strain GP2d; type: cell-based
Experimental: (§2) A test compound was dispensed into a U-bottom 384-well plate as 40 nL serially diluted dimethyl sulfoxide solutions using a liquid handler Echo (LABCYTE). As for human colorectal cancer strain GP2d (ECACC), a cell suspension was prepared so as to have 500 cells/40 µL in a Dulbecco's modified Eagle medium supplemented with 10% fetal bovine serum (Sigma). This cell suspension was dispensed in an amount of 40 µL per well into a plate containing the test compound, and cultured at 37°C in a 5% carbon dioxide gas incubator. Seven days later, 20 µL of CellTiter-Glo (registered trademark) (Promega) was added to each well and luminescence was measured.

[3] = test system: human pancreatic cancer strain KP4; type: cell-based
Experimental: as §2, with “pancreatic” for “colorectal”, “KP4 (Institute of Physical and Chemical Research),” for “GP2d (ECACC),”, “DMEM/Ham's F-12” for “Dulbecco's modified Eagle”, “medium (Nacalai Tesque)” for “medium”

[4] = test system: human bladder cancer strain UM-UC-3; type: cell-based
Experimental: A test compound was dispensed into a U-bottom 384-well plate as 40 nL serially diluted dimethyl sulfoxide solutions using a liquid handler Echo (LABCYTE). As for human bladder cancer strain UM-UC-3 (ATCC), a cell suspension was prepared so as to have 250 cells/40 µL in an MEM medium (Nacalai Tesque) supplemented with 10% fetal bovine serum (Sigma), an MEM non-essential amino acids solution (100X), and 1 mmol/L sodium pyruvate. This cell suspension was dispensed in an amount of 40 µL per well into a plate containing the test compound, and cultured at 37°C in a 5% carbon dioxide gas incubator. Seven days later, 20 µL of CellTiter-Glo (registered trademark) (Promega) was added to each well and luminescence was measured. […]

[5] = target: GDP-bound KRAS wild-type protein (Homo sapiens, UniProt P01116); test: Binding to KRAS by surface plasmon resonance (SPR), dissociation constant KD
Sequence of GDP-bound KRAS wild-type protein (P01116 1-188 isoform P01116-2): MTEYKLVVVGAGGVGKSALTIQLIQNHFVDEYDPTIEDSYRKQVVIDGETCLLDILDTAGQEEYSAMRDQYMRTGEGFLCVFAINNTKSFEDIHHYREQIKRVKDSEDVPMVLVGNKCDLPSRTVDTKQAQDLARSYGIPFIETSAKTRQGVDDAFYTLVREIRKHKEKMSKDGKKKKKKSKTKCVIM
How it was run: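 Single-cycle kinetics on GDP-loaded biotin-Avi RAS captured to ~100–300 RU; 75 s ascending injections, 100 µL/min, 30°C. HBS pH 7.4 + 10 mM MgCl2/10 µM GDP/4% DMSO. 1:1 fit, KD.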

[6] = test system: human gastric cancer strain GSU; type: cell-based
Experimental: as §2, with “gastric” for “colorectal”, “GSU (Institute of Physical and Chemical Research),” for “GP2d (ECACC),”, “200” for “500”, “an RPMI-1640” for “a Dulbecco's modified Eagle”, “medium (Sigma)” for “medium”

[7] = test system: human gastric cancer strain SNU-1; type: cell-based
Experimental: A test compound was dispensed into a U-bottom 384-well plate as 40 nL serially diluted dimethyl sulfoxide solutions using a liquid handler Echo (LABCYTE). As for human gastric cancer strain SNU-1 (ATCC), a cell suspension was prepared so as to have 250 cells/40 µL in an RPMI-1640 medium (Sigma) supplemented with 10% fetal bovine serum (Sigma), a 2.5 g/L D-(+)-glucose solution, 10 mmol/L HEPES, and 1 mmol/L sodium pyruvate. This cell suspension was dispensed in an amount of 40 µL per well into a plate containing the test compound, and cultured at 37°C in a 5% carbon dioxide gas incubator. Seven days later, 20 µL of CellTiter-Glo (registered trademark) (Promega) was added to each well and luminescence was measured.

[8] = test system: human lung cancer strain NCI-H441; type: cell-based
How it was run: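 Readout: […] after the ATP-based reagent. Compound: serial dilutions in dimethyl sulfoxide.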

[9] = target: GDP-bound NRAS wild-type protein (Homo sapiens, UniProt P01111); test: Binding to NRAS by surface plasmon resonance (SPR), KD and KD ratio to KRAS
Sequence of GDP-bound NRAS wild-type protein (P01111 whole entry): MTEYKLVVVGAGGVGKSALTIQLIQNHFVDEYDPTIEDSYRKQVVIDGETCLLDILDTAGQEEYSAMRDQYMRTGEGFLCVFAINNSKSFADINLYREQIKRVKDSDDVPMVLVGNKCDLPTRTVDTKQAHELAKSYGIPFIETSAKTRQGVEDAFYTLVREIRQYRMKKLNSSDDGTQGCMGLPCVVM
How it was run: as §1

[10] = ratio of KD for HRAS wild-type protein to KD for KRAS
[11] = ratio of KD for GDP-bound NRAS wild-type protein to KD for KRAS
[12] = Single Cycle Kinetics, 1:1 binding model

Sequence of HRAS wild-type protein (P01112 whole entry): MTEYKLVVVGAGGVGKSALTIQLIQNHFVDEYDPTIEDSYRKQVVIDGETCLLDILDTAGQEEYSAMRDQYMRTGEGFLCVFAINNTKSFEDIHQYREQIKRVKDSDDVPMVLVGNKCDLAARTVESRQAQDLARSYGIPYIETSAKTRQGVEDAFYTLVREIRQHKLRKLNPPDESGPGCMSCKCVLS

Structure (SMILES) | HRAS /KRAS (HRAS wild-type protein; [10]) | IC50 [1] | IC50 [2] | IC50 [3] | IC50 [4] | Kd ([5]; 1:1 binding model) | IC50 [6] | IC50 [7] | IC50 [8] | NRAS /KRAS [9, 11] | HRAS /KRAS (HRAS wild-type protein; ratio of the KD value with respect to HRAS wild-type protein to the KD value with respect to KRAS) | Kd [5, 12] | NRAS /KRAS ([9]; ratio of the KD value with respect to GDP-bound NRAS wild-type protein to the KD value with respect to KRAS) | Kd ([5]; Single Cycle Kinetics) | HRAS /KRAS (HRAS wild-type protein; ratio of KD value for HRAS wild-type protein to KD value for KRAS (SPR)) | NRAS /KRAS ([9]; ratio of KD value for GDP-bound NRAS wild-type protein to KD value for KRAS (SPR))
CCC[C@H]1C(=O)N[C@@H]([C@@H](C)CC)C(=O)N(C2CC2)CC(=O)N(C)[C@H]2C/C=C\CCN(C2=O)[C@@H](Cc2ccc(C(F)(F)F)cc2)C(=O)N(C)CC(=O)N[C@@H](CCc2cc(F)c(C(F)(F)F)c(F)c2)C(=O)N2C[C@H](OCC)C[C@H]2C(=O)NC2(CC(C)(C)C2)C(=O)N(C)[C@@H](CC(C)(C)C)C(=O)N(C)[C@H](C(=O)N(C)C)CC(=O)N1C [PP2742] | A (a compound having 10 or more and less than 20 is denoted as A) | 20.4 nM | 12 nM | 28.7 nM | 15.4 nM | 0.26 nM | 3.2 nM | 26.7 nM | 14.9 nM | AA (a compound having 20 or more is denoted as AA) | – | – | – | – | – | –
CCC[C@H]1C(=O)N[C@@H]([C@@H](C)CC)C(=O)N(C)CC(=O)N(C)[C@H]2C/C=C\CCN(C2=O)[C@@H](Cc2ccc(C(F)(F)F)cc2)C(=O)N(C)CC(=O)N[C@@H](CCc2ccc(Cl)c(Cl)c2)C(=O)N2C[C@H](OCC)C[C@H]2C(=O)NC2(CC(C)(C)C2)C(=O)N(C)[C@@H](C(CC)CC)C(=O)N(C)[C@H](C(=O)N(C)C)CC(=O)N1C [PP2175, (2S,8S,12R,14S,20S,23S,27S,30S,36S,38Z)-8-[2-(3,4-dichlorophenyl)ethyl]-12-ethoxy-20-(1-ethylpropyl)-N,N,3',3',4,19,22,26,32,35-decamethyl-30-[(1S)-1-methylpropyl]-3,6,9,15,18,21,25,28,31,34,42-undecaoxo-27-propyl-2-[[4-(trifluoromethyl)phenyl]methyl]spiro[1,4,7,10,16,19,22,26,29,32,35-undecazatricyclo[34.5.1.0^10,14]dotetracont-38-ene-17,1'-cyclobutane]-23-carboxamide] | – | 80.2 nM | 24.8 nM | 102 nM | 19.7 nM | – | 0.5 nM | 20 nM | 25.7 nM | – | A (a compound having 10 or more and less than 20 is denoted as A) | 0.45 nM | AA (a compound having 20 or more is denoted as AA) | – | – | –
CCO[C@@H]1C[C@H]2C(=O)NC3(CCCC3)C(=O)N(C)[C@@H](C3CCCC3)C(=O)N(C)[C@H](C(=O)N(C)C)CC(=O)N(C)[C@@H](CC(C)C)C(=O)N[C@@H]([C@@H](C)CC)C(=O)N(C)CC(=O)N(C)[C@H]3C/C=C\CCN(C3=O)[C@@H](Cc3ccc(C(F)(F)F)cc3)C(=O)N(C)CC(=O)N[C@@H](CCc3cc(F)c(C(F)(F)F)c(F)c3)C(=O)N2C1 [PP1105, (2S,8S,12R,14S,20S,23S,27S,30S,36S,38Z)-20-cyclopentyl-8-[2-[3,5-difluoro-4-(trifluoromethyl)phenyl]ethyl]-12-ethoxy-27-isobutyl-N,N,4,19,22,26,32,35-octamethyl-30-[(1S)-1-methylpropyl]-3,6,9,15,18,21,25,28,31,34,42-undecaoxo-2-[[4-(trifluoromethyl)phenyl]methyl]spiro[1,4,7,10,16,19,22,26,29,32,35-undecazatricyclo[34.5.1.0^10,14]dotetracont-38-ene-17,1'-cyclopentane]-23-carboxamide] | A (a compound having 10 or more and less than 20 is denoted as A) | 8.1 nM | 2.9 nM | 3.1 nM | 2.1 nM | – | 0.3 nM | 2.7 nM | 12 nM | A (a compound having 10 or more and less than 20 is denoted as A) | – | – | – | 0.07 nM | – | –
CCC[C@H]1C(=O)N[C@@H]([C@@H](C)CC)C(=O)N(C)CC(=O)N(C)[C@H]2C/C=C\CCN(C2=O)[C@@H](Cc2ccc(C)cc2)C(=O)N(C)CC(=O)N[C@@H](CCc2ccc(C(F)(F)F)c(OC)c2)C(=O)N2C[C@H](OCC)C[C@H]2C(=O)OC2(CCC2)C(=O)N(C)[C@@H](C2CCCC2)C(=O)N(C)[C@H](C(=O)N(C)C)CC(=O)N1C [PP3388, (2S,8S,12R,14S,20S,23S,27S,30S,36S,38Z)-20-cyclopentyl-12-ethoxy-8-[2-[3-methoxy-4-(trifluoromethyl)phenyl]ethyl]-N,N,4,19,22,26,32,35-octamethyl-30-[(1S)-1-methylpropyl]-3,6,9,15,18,21,25,28,31,34,42-undecaoxo-27-propyl-2-(p-tolylmethyl)spiro[16-oxa-1,4,7,10,19,22,26,29,32,35-decazatricyclo[34.5.1.0^10,14]dotetracont-38-ene-17,1'-cyclobutane]-23-carboxamide] | B (a compound having 3 or more and less than 10 is denoted as B) | 6.7 nM | 4.6 nM | 10.5 nM | 4.9 nM | – | 1.2 nM | 7.4 nM | 1.2 nM | A (a compound having 10 or more and less than 20 is denoted as A) | – | – | – | 0.16 nM | – | –
CCCC[C@H]1C(=O)N[C@@H]([C@@H](C)CC)C(=O)N(C)CC(=O)N(C)[C@H]2C/C=C\CCN(C2=O)[C@@H](Cc2ccc(C(F)(F)F)cc2)C(=O)N(C)CC(=O)N[C@@H](CCc2cc(F)c(C(F)(F)F)c(F)c2)C(=O)N2C[C@H](F)C[C@H]2C(=O)NC2(CC(C)(C)C2)C(=O)N(C)[C@@H](C2CCCC2)C(=O)N(C)[C@H](C(=O)N(C)C)CC(=O)N1C [PP1693, (2S,8S,12R,14S,20S,23S,27S,30S,36S,38Z)-27-butyl-20-cyclopentyl-8-[2-[3,5-difluoro-4-(trifluoromethyl)phenyl]ethyl]-12-fluoro-N,N,3',3',4,19,22,26,32,35-decamethyl-30-[(1S)-1-methylpropyl]-3,6,9,15,18,21,25,28,31,34,42-undecaoxo-2-[[4-(trifluoromethyl)phenyl]methyl]spiro[1,4,7,10,16,19,22,26,29,32,35-undecazatricyclo[34.5.1.0^10,14]dotetracont-38-ene-17,1'-cyclobutane]-23-carboxamide] | – | 7.4 nM | 2.4 nM | 14.2 nM | 4.1 nM | – | 0.5 nM | 4.3 nM | 1.1 nM | – | – | 0.027 nM | – | – | A (a compound having 10 or more and less than 20 is denoted as A) | AA (a compound having 20 or more is denoted as AA)
